Source: US20190367520A1, “NEW COMPOUND HAVING FGFR INHIBITORY ACTIVITY AND PREPARATION AND APPLICATION THEREOF” (SHANGHAI INSTITUTE OF MATERIA MEDICA, CHINESE ACADEMY OF …, priority 2016, published 2019)

How the values were obtained:
SNU16 cells = experiment: SNU16 cell proliferation (CCK-8, 72 h); type: cell-based; conditions: Homo sapiens, SNU-16, read-out: SNU16 (IC50 class)
Procedure: The inhibitory effect of the compound on SNU16 cells proliferation was examined by CCK-8 Cell Counting Kit (Dojindo). The specific steps are as follows: SNU16 cells in logarithmic growth phase were inoculated into a 96-well culture plate at a suitable density, 90 μL per well, and cultured overnight, different concentrations of compounds were added for 72 hr, and the solvent control group was set (negative control). After the cells were treated by the compound for 72 h, the effect of the compound on cell proliferation was detected by CCK-8 cell counting kit (Dojindo). 10 μL of CCK-8 reagent was added to each well and placed in a 37° C. incubator for 2-4 hours. The full-wavelength microplate reader SpectraMax 190 was used at a measure wavelength of 450 nm.

[1] = target: FGFR1 kinase domain recombinant protein (Homo sapiens, UniProt P11362); experiment: FGFR1 enzyme activity at molecular level (ELISA, Poly(Glu,Tyr) 4:1 substrate)
Sequence of FGFR1 kinase domain recombinant protein (P11362 478-767 limits assumed): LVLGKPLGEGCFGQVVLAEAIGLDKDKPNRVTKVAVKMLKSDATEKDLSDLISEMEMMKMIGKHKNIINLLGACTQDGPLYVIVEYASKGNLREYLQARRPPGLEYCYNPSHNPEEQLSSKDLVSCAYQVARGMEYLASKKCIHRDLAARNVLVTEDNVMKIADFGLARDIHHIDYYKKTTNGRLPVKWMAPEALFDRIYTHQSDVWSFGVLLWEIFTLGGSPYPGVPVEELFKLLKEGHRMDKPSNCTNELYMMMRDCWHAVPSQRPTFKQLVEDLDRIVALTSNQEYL
Procedure: (§1) The plate was placed at 37° C. for 12-16 hours. The liquid in the well was discarded, the plate was washed, and the panel was washed three times with 200 μL/well of T-PBS (PBS containing 0.1% Tween-20) for 5 minutes each time.
(§2) 50 μL of ATP solution diluted with reaction buffer (50 mM HEPES pH 7.4, 50 mM MgCl2, 0.5 mM MnCl2, 0.2 mM Na3VO4, 1 mM DTT) was added to each well to a final concentration of 5 μM. The compound was diluted to a suitable concentration in DMSO, 1 μL/well or containing the corresponding concentration of DMSO (negative control well), and the FGFR1, FGFR4 kinase domain recombinant protein diluted in 49 μL of reaction buffer was added to initiate the reaction. Two control wells without ATP were required for each experiment. The reaction was carried out for 1 hour at 37° C. on a shaker (100 rpm). The plate was washed three times with T-PBS. Primary antibody, PY99 dilution was added at 100 μL/well and shaken at 37° C. for 0.5 hour. The plate was washed three times with T-PBS. Secondary antibody, horseradish peroxidase-labeled goat anti-mouse IgG dilution was added at 100 μL/well, and shaken at 37° C. for 0.5 hour. […] (Ultrasound was required for the dissolution of OPD, and the chromogenic solution needed to be prepared when used). 2 M H2SO4 was added at 50 μL/well to quench the reaction and a tunable wavelength microplate reader SPECTRA MAX 190 was used at a wavelength of 490 nm.
(§3) The inhibition rate of the sample was obtained by the following formula:
(§4) The IC50 value was obtained by four-parameter regression using the software attached to the microplate reader.

[2] = target: FGFR4 kinase domain recombinant protein (Homo sapiens, UniProt P22455); experiment: FGFR4 enzyme activity at molecular level (ELISA, Poly(Glu,Tyr) 4:1 substrate)
Sequence of FGFR4 kinase domain recombinant protein (P22455 467-755 limits assumed): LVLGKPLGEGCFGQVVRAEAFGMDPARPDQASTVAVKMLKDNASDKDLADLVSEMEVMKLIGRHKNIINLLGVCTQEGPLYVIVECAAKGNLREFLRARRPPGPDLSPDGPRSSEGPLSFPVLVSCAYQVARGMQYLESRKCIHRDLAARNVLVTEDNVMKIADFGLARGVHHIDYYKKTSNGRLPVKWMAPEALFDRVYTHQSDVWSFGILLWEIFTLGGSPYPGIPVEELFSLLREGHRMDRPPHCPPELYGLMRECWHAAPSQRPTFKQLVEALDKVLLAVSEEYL
Procedure: as §1, §2, §3, §4

IC50 (SNU16 cells) [nM]	IC50 [1] [nM]	IC50 [2] [nM]	Structure (SMILES)
< 10	< 10	< 10	C=CC(=O)N1CCC(n2cc(-c3cc4cc(C)cc(OC)c4s3)c3c(N)ncnc32)C1 (centres unmarked) [NO. 1, 1-(3-(4-amino-5-(7-methoxy-5-methylbenzothiophen-2-yl)-7H-pyrrole[2,3-d]pyrimidine-7-yl)pyrrolidine-1-yl)prop-2-en-1-one]
< 10	< 10	10 to 100	C=CC(=O)N1CCC(n2nc(-c3cc4cc(C)cc(OC)c4s3)c3c(N)ncnc32)C1 (centres unmarked) [NO. 2, 1-(3-(4-amino-3-(7-methoxy-5-methylbenzothiophene-2-yl)-1H-pyrazole[3,4-d]pyrimidine-1-yl)pyrrolidine-1-yl)prop-2-en-1-one]
> 100	< 10	< 10	C=CC(=O)N1CC(n2nc(-c3cc4cc(C)cc(OC)c4s3)c3c(N)ncnc32)C1 [NO. 26, 1-(3-(4-amino-3-(7-methoxy-5-methylbenzothiophene-2-yl)-1H-pyrazole[3,4-d]pyrimidine-1-yl)azetidine-1-yl)prop-2-en-1-one]
> 100	< 10	10 to 100	C#CC(=O)N1CC(n2nc(-c3cc4cc(C)cc(OC)c4s3)c3c(N)ncnc32)C1 [NO. 27]
< 10	< 10	10 to 100	C=C(F)C(=O)N1CC(n2cc(-c3cc4cc(C)cc(OC)c4s3)c3c(N)ncnc32)C1 [NO. 29]
< 10	< 10	< 10	C=C(CN1CCOCC1)C(=O)N1CC(n2cc(-c3cc4cc(C)cc(OC)c4s3)c3c(N)ncnc32)C1 [NO. 31, 1-(3-(4-amino-5-(7-methoxy-5-methylbenzothiophene-2-yl)-7H-pyrrole[2,3-d]pyrimidine-7-yl)azetidine-1-yl)-2-(morpholinomethylene)prop-2-en-1-one]
> 100	10 to 100	10 to 100	C=CC(=O)N1CCC(n2cc(-c3ccc4[nH]c(C)nc4c3)c3c(N)ncnc32)C1 (centres unmarked) [NO. 36, 1-(3-(4-amino-5-(2-methyl-1H-benzimidazol-5-yl)-7H-pyrrole[2,3-d]pyrimidine-7-yl)pyrrolidine-1-yl)prop-2-en-1-one]
< 10	< 10	> 100	COc1cc(C)cc2cc(-c3nn([C@H]4CCN(C(=O)/C=C/CN(C)C)C4)c4ncnc(N)c34)sc12 [NO. 38]
> 100	< 10	< 10	C#CC(=O)N1CC[C@H](n2nc(-c3cc4cc(C)cc(OC)c4s3)c3c(N)ncnc32)C1 [NO. 39, (S)-1-(3-(4-amino-3-(7-methoxy-5-methylbenzothiophene-2-yl)1H-pyrazolo[3,4-d]pyrimidine-1-yl)pyrrolidin-yl)prop-2-yn-1-one]
> 100	< 10	< 10	C=CS(=O)(=O)N1CC[C@H](n2nc(-c3cc4cc(C)cc(OC)c4s3)c3c(N)ncnc32)C1 [NO. 40]
	< 10	< 10	C=C(CN(C)C)C(=O)N1CC(n2cc(-c3cc4cc(C)cc(OC)c4s3)c3c(N)ncnc32)C1 [NO. 53, 1-(3-(4-amino-5-(7-methoxy-5-methylbenzothiophene-2-yl)-7H-pyrrole[2,3-d]pyrimidine-7-yl)azetidine-1-yl)-2-((dimethylamino)methylene)prop-2-en-1-one]
	< 10	10 to 100	C=C(CN1CCOCC1)C(=O)N1CC[C@H](n2nc(-c3cc4cc(C)cc(OC)c4s3)c3c(N)ncnc32)C1 [NO. 54, (S) 1-(3-(4-amino-3-(7-methoxy-5-methylbenzothiophene-2-yl)-1H-pyrazole[3,4-d]pyrimidine-1-yl)pyrrolidine-1-yl)-2-(morpholinemethylene)prop-2-en-1-one]
	< 10	< 10	C=C(CN1CCOCC1)C(=O)N1CC(n2nc(-c3cc4cc(C)cc(OC)c4s3)c3c(N)ncnc32)C1 [NO. 55, 1-(3-(4-amino-3-(7-methoxy-5-methylbenzothiophene-2-yl)-1H-pyrazole[3,4-d]pyrimidin-yl)azetidine-1-yl)-2-(morpholinemethylene)prop-2-en-1-one]
	< 10	< 10	C=CC(=O)N1CC[C@H](n2nc(-c3cc4cc(C)cc(OC)c4s3)c3c(N)ncnc32)C1 [NO. 56, (S) 1-(3-(4-amino-3-(7-methoxy-5-methylbenzothiophene-2-yl)-1H-pyrazole[3,4-d]pyrimidine-1-yl)pyrrolidine-1-yl)prop-2-en-1-one]
	< 10	< 10	C=CC(=O)N1CCC(n2cc(-c3cc4cc(C(F)(F)F)cc(OC)c4s3)c3c(N)ncnc32)C1 (centres unmarked) [NO. 58, 1-(3-(4-amino-5-(7-methoxy-5-(trifluoromethyl)benzothiophene-2-yl)-7H-pyrrole[2,3-d]pyrimidine-7-yl)pyrrolidine-1-yl)prop-2-en-1-one]
	> 100	> 100	C=CC(=O)N1CCC(n2cc(-c3cc4cc(C)cc(OC)c4s3)c3c(N(C)C)ncnc32)C1 (centres unmarked) [NO. 63, 1-(3-(4-(dimethylamino)-5-(7-methoxy-5-methylbenzothiophene-2-yl)-7H-pyrrole[2,3-d]pyrimidine-7-yl)pyrrolidine-1-yl)prop-2-en-1-one]
	< 10	10 to 100	COc1cc(C)cc2cc(-c3cn(C4CCN(C(=O)/C=C/CN5CCC(F)C5)C4)c4ncnc(N)c34)sc12 (centres unmarked) [NO. 69, (E)-1-(3-(4-amino-5-(7-methoxy-5-methylbenzothiophene-2-yl)-7H-pyrrole[2,3-d]pyrimidine-7-yl)pyrrolidine-1-yl)-4-(3-fluoropyrrolidin-1-yl)but-2-en-1-one]
	10 to 100	> 100	COc1cc(C)cc2cc(-c3cn(CCN4CCOCC4)c4ncnc(N)c34)sc12 [NO. 76, 5-(7-methoxy-5-methylbenzothiophene-2-yl)-7-(2-morpholineethyl)-7H-pyrrole[2,3-d]p yrimidine-4-amine]
	< 10	10 to 100	COc1cc(C)cc2cc(-c3cn(C4CCN(C(=O)/C=C/CN5CCC(O)CC5)C4)c4ncnc(N)c34)sc12 (centres unmarked) [NO. 77, (E)-1-(3-(4-amino-5-(7-methoxy-5-methylbenzothiophene-2-yl)-7H-pyrrole[2,3-d]pyrimidine-7-yl)pyrrolidine-1-yl)-4-(4-hydroxypiperidine-1-yl)but-2-en-1-one]
	< 10	10 to 100	C=CC(=O)Nc1cccc(Cn2nc(-c3cc4cc(C)cc(OC)c4s3)c3c(N)ncnc32)c1 [NO. 78, N-(3-((4-amino-3-(7-methoxy-5-methylbenzothiophene-2-yl)-1H-pyrazole[3,4-d]pyrimidine-1-yl)methyl)phenyl)acrylamide]
	> 100	> 100	C=CC(=O)N1CCC(n2cc(-c3ccc4c(N)n[nH]c4c3)c3c(N)ncnc32)C1 (centres unmarked) [NO. 80, 1-(3-(4-amino-5-(3-amino-1H-indazol-6-yl)-7H-pyrrole[2,3-d]pyrimidine-7-yl)pyrrolidine-1-yl)prop-2-en-1-one]
	< 10	10 to 100	COCCN(C)C/C=C/C(=O)N1CCC(n2cc(-c3cc4cc(C)cc(OC)c4s3)c3c(N)ncnc32)C1 (centres unmarked) [NO. 81, (E)-1-(3-(4-amino-5-(7-methoxy-5-methylbenzothiophene-2-yl)-7H-pyrrole[2,3-d]pyrimidine-7-yl)pyrrolidine-1-yl)-4-((2-methoxyethyl) (methyl)amino)but-2-en-1-one]
	> 100	> 100	C=CC(=O)N1CCC(n2cc(-c3ccncc3)c3c(N)ncnc32)C1 (centres unmarked) [NO. 82, 1-(3-(4-amino-5-(pyridine-4-yl)-7H-pyrrole[2,3-d]pyrimidine-7-yl)pyrrolidine-1-yl)prop-2-en-1-one]
	> 100	> 100	C=CC(=O)N1CCC(n2cc(-c3ccoc3)c3c(N)ncnc32)C1 (centres unmarked) [NO. 83, 1-(3-(4-amino-5-(furan-3-yl)-7H-pyrrole [2,3-d]pyrimidine-7-yl)pyrrolidine-1-yl)prop-2-en-1-one]
	< 10	> 100	COc1cc(C)cc2cc(-c3nn(C4CCN(C(=O)CCl)C4)c4ncnc(N)c34)sc12 (centres unmarked) [NO. 84, 1-(3-(4-amino-3-(7-methoxy-5-methylbenzothiophene-2-yl)-1H-pyrazole[3,4-d]pyrimidine-1-yl)pyrrolidine-1-yl)-2-chloroethane-1-one]
	> 100	> 100	C=CC(=O)N1CCC(n2cc(-c3cc4cc(C(=O)O)cc(OC)c4s3)c3c(N)ncnc32)C1 (centres unmarked) [NO. 85, 2-(7-(1-acryloylpyrrolidine-3-yl)-4-amino-7H-pyrrole[2,3-d]pyrimidine-5-yl)-7-methoxybenzothiophene-5-formic acid]

Structure (SMILES)	IC50 (SNU16 cells) [nM]	IC50 [1] [nM]	IC50 [2] [nM]
C=CS(=O)(=O)N1CC(n2cc(-c3cc4cc(C)cc(OC)c4s3)c3c(N)ncnc32)C1 [NO. 28, 5-(7-methoxy-5-methylbenzothiophene-2-yl)-7-(1-(vinylsulfonyl)azetidine-3-yl)-7H-pyrrole[2,3-d]pyrimidine-4-amine]	> 100	< 10	
C=CC(=O)N1CC(n2cc(-c3cc4c(OC)ccc(OC)c4s3)c3c(N)ncnc32)C1 [NO. 41, 1-(3-(4-amino-5-(4,7-dimethoxybenzothiophen-2-yl)-7H-pyrrole[2,3-d]pyrimidine-7-yl)azetidine-1-yl)prop-2-en-1-one]	10 to 100		
